Reference: ChEMBL document CHEMBL1201862, “PubChem BioAssay data set” (2004)
Activity calls are given as the source filed them.

Legend:
[1] = molecular target: T1, Serine/threonine-protein phosphatase (Candida dubliniensis (strain CD36 / CBS 7987 / NCPF 3949 / NRRLY-17841) (Yeast), UniProt B9W6M3); experiment: blockers of CaCl2-induced CDRE-lacZ signaling – S. cerevisiae, luminescence, secondary, dose response (AID 2388); assay type: functional, cell-based;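 also: yeast reporter cells carrying a calcineurin-responsive lacZ construct stimulated with calcium chloride; luminescent beta-galactosidase reporter signal in whole cells rather than isolated phosphatase activity; potency for inhibition where a drop in reporter signal means calcineurin blockade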
T1 sequence (B9W6M3 whole entry): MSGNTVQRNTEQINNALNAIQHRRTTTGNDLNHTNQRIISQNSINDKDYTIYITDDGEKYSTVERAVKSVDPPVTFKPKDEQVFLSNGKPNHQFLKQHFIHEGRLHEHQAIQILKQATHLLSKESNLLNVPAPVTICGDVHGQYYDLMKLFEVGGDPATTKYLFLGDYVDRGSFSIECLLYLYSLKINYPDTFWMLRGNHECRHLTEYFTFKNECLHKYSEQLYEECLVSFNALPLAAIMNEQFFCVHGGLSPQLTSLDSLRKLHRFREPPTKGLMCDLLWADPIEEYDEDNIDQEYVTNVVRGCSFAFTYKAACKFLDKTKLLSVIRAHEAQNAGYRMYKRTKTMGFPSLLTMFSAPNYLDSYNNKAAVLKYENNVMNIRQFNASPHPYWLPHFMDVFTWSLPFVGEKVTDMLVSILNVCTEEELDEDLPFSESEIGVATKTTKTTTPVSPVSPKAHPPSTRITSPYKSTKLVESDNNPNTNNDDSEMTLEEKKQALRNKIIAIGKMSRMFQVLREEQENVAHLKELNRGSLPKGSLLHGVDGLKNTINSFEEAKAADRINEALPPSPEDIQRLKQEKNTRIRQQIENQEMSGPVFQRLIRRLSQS

[2] = molecular target: Heat shock protein HSP 90-alpha (Homo sapiens, UniProt P07900); assay type: functional, organism-based
[3] = molecular target: ATP-dependent molecular chaperone HSP82 (Candida albicans (strain WO-1) (Yeast), UniProt C4YTQ8); experiment: steroid-induced GRE reporter decrease in yeast – S. cerevisiae, luminescence, Hsp90 inhibitor project, dose response (AID 2400); assay type: functional, cell-based;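 also: beta-galactosidase luminescence from glucocorticoid response element reporter as proxy for Hsp90 function; inhibitor potency where signal loss means Hsp90 inhibition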
HeLa = experiment: ATP-based viability loss in HeLa cells – cell-based, CellTiter-Glo luminescence, cherry-pick samples, cytotoxicity control for MITF activator project, dose response (AID 540259); assay type: functional; settings: Homo sapiens
[4] = molecular target: G-protein coupled receptor 55 (Homo sapiens, UniProt Q9Y2T6); experiment: inhibition of LPI-stimulated GPR55 beta-arrestin translocation – imaging, U2OS, beta-arrestin-GFP, LPI agonist, primary screen (AID 2013); assay type: functional;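 also: antagonist potency measured as reduced agonist-driven arrestin aggregation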
[5] = Trypanosoma cruzi growth suppression in host cells – NIH3T3 host cells, beta-gal luminescence, confirmation (AID 2044); assay type: functional, cell-based;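 also: intracellular parasites grown in NIH/3T3 mouse fibroblasts as host cells; luminescent beta-galactosidase reporter signal from transgenic T. cruzi replicating inside host cells; inhibitors lower the luminescence signal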
[6] = NIH3T3 cell viability loss – ATP luminescence, mouse fibroblasts, counter-screen, dose response (AID 2010); assay type: functional, cell-based;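 also: cells exposed to compound for about 90 hours before reading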
[7] = molecular target: T2, Replicative DNA helicase DnaB (Mycobacterium tuberculosis, UniProt P9WMR3); experiment: DnaB intein splicing inhibitors, dose response, biochemical, cell-free fluorescence (AID 449749); assay type: functional
T2 sequence (P9WMR3 whole entry): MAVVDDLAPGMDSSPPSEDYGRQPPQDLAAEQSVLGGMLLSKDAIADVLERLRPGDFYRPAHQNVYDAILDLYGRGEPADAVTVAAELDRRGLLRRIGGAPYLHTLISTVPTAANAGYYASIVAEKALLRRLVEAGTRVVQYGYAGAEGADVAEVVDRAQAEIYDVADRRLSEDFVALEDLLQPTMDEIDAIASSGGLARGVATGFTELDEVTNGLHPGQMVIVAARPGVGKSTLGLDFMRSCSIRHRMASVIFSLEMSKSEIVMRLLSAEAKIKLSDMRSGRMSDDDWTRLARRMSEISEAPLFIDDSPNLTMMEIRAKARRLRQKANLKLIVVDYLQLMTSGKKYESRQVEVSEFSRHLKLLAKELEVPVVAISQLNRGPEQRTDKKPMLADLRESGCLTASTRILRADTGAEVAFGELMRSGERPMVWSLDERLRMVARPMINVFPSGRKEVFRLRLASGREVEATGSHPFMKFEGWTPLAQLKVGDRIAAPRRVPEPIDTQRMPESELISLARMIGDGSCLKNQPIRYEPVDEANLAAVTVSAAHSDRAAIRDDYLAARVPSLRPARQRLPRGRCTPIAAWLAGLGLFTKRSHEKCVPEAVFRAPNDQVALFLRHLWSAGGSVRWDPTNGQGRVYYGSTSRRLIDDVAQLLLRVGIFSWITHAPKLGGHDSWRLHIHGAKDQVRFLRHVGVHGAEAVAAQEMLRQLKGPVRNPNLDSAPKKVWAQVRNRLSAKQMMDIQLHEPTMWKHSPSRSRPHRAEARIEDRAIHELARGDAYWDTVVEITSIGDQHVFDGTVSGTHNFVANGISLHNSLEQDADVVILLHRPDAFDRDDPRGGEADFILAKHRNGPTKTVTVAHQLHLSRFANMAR

Protein RecA = molecular target: T3, Protein RecA (Mycobacterium tuberculosis, UniProt P9WHJ3); experiment: Fluorescence Cell-Free Homogeneous Dose Retest to Identify Inhibitors of RecA-Intein Splicing Activity. [Related pubchem assays (depositor defined):AID2097, AID2223, AID489010, AID492950]; assay type: functional
T3 sequence (P9WHJ3 whole entry): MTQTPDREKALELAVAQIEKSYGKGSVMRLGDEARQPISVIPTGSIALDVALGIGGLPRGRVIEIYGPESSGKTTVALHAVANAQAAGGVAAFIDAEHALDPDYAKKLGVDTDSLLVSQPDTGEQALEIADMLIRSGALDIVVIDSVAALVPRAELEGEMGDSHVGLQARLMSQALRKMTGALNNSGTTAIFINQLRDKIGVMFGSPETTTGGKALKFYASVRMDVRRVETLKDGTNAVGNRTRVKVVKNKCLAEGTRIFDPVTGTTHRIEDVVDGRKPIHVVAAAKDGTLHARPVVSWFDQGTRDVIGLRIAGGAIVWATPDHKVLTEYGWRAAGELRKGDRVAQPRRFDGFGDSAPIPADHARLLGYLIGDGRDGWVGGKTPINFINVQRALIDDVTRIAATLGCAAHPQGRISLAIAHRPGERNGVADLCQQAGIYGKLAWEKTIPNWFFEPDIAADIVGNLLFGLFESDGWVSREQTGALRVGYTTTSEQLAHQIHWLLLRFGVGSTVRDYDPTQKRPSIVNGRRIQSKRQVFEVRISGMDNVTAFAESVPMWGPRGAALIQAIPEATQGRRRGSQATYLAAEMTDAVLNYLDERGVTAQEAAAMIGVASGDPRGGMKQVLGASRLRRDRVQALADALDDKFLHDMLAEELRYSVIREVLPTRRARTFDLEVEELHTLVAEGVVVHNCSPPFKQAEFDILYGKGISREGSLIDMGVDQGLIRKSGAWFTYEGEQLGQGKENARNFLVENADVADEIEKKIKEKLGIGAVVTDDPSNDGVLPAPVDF

[8] = molecular target: Voltage-dependent T-type calcium channel subunit alpha-1H (Homo sapiens, UniProt O95180); assay type: functional;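 also: channel activity triggered by adding a high calcium stimulation buffer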
Cytochrome P450 1A2 = molecular target: T4, Cytochrome P450 1A2 (Homo sapiens, UniProt P05177);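 also: PubChem cytochrome P450 panel assay, CYP1A2 panel member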
T4 sequence (P05177 whole entry): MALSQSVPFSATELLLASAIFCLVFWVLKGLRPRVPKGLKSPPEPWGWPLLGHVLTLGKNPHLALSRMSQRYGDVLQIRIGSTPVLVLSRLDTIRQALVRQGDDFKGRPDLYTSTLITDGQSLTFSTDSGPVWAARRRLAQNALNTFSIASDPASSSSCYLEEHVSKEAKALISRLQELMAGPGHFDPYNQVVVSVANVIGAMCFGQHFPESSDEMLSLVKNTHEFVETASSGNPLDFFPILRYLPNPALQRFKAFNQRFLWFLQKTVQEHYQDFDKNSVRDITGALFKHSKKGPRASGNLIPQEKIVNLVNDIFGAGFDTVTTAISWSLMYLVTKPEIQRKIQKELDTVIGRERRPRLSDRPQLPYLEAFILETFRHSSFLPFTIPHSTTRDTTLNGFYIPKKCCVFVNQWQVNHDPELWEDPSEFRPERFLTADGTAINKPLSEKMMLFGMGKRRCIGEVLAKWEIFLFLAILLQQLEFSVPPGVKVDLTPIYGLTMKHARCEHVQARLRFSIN

Cytochrome P450 2C9 = Cytochrome P450 2C9 (Homo sapiens, UniProt P11712)
[9] = molecular target: T5, High affinity choline transporter 1 (Homo sapiens, UniProt Q9GZV3); experiment: human choline transporter blockers, potency – cell-based, 5-point CRC, membrane potential dye, dose response (AID 504840); assay type: functional
T5 sequence (Q9GZV3 whole entry): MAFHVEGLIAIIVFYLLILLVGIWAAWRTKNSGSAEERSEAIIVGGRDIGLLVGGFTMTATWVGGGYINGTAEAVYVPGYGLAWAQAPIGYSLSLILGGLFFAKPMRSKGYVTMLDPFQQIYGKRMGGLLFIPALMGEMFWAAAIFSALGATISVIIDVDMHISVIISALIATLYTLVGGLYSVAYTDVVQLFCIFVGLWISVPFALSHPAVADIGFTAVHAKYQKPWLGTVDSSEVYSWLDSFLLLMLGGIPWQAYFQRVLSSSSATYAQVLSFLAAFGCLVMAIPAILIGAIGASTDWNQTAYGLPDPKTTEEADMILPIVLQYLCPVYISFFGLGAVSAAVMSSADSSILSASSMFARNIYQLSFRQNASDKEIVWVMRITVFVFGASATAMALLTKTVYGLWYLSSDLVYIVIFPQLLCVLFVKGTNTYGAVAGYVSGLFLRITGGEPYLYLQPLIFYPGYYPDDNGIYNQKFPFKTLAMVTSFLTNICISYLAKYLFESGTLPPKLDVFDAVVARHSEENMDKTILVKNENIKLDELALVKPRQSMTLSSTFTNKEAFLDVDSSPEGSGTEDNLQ

[10] = NIH-3T3 fibroblast cytotoxicity, dose response, cytotoxicity control, cell-based, fluorescence, Alamar Blue, secondary assay (AID 2327); assay type: functional;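 also: NIH-3T3 mouse fibroblasts cultured with fluconazole at 8 µg/mL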
[11] = test system: Streptococcus sp. 'group A'; experiment: Streptococcus pyogenes SK(-)GAS viability under kanamycin – luminescence, BacTiterGlo, confirmation, counter-screen for streptokinase expression inhibitor project, dose response (AID 1900); assay type: functional, organism-based
[12] = fluconazole-exposed Candida albicans growth modulators – fluorescence, retest, confirmation (AID 2467); assay type: functional, cell-based
Streptococcus = experiment: GAS UMAA2166 growth inhibition – luminescence, BacTiterGlo, counter-screen for streptokinase expression inhibitor project, dose response (AID 1915); assay type: functional, organism-based;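 also: potency for reduction of bacterial viability or growth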
Cytochrome P450 2C19 = Cytochrome P450 2C19 (Homo sapiens, UniProt P33261); experiment: Cytochrome panel assay with activity outcomes. Panel member name: p450-cyp2c19 Compounds with AC50 equal or less than 10 uM are considered active; assay type: functional; settings: read-out: AC50
[13] = Luminescence Cell-Based Dose Retest to Confirm Inhibitors of Cancer Stem Cells. [Related pubchem assays (depositor defined):AID2717, AID2721]; assay type: functional; settings: Homo sapiens
Cytochrome P450 3A4 = Cytochrome P450 3A4 (Homo sapiens, UniProt P08684);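 also: CYP3A4 tested as one member of a cytochrome P450 panel screen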
Sequence of Cytochrome P450 3A4 (P08684 whole entry): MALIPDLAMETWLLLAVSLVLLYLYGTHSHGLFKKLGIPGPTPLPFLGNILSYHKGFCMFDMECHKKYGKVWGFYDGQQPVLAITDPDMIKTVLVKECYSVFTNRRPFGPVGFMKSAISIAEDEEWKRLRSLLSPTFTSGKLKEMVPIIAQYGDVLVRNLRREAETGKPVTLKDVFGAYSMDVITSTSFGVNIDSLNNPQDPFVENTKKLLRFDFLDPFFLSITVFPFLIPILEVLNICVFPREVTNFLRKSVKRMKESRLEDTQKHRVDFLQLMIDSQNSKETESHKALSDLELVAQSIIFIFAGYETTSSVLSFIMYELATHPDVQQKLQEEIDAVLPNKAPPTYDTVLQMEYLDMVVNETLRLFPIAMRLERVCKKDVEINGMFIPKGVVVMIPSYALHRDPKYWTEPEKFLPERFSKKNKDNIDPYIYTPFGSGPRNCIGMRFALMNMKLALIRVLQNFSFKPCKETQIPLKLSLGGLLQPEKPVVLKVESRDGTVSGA

Sequence of Cytochrome P450 2C9 (P11712 whole entry): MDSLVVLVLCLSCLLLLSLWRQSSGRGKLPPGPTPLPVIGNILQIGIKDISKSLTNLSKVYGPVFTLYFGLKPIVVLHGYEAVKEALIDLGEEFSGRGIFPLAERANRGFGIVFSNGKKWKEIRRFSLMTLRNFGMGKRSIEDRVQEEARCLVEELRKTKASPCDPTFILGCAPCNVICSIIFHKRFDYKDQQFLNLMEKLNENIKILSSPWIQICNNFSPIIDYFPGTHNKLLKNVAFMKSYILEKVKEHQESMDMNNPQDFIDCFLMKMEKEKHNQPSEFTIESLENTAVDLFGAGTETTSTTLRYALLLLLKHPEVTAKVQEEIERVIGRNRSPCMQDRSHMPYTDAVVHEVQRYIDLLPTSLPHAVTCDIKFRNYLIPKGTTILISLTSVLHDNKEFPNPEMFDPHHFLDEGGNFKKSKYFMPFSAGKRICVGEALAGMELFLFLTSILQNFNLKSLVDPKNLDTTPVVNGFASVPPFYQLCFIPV
Sequence of ATP-dependent molecular chaperone HSP82 (C4YTQ8 whole entry): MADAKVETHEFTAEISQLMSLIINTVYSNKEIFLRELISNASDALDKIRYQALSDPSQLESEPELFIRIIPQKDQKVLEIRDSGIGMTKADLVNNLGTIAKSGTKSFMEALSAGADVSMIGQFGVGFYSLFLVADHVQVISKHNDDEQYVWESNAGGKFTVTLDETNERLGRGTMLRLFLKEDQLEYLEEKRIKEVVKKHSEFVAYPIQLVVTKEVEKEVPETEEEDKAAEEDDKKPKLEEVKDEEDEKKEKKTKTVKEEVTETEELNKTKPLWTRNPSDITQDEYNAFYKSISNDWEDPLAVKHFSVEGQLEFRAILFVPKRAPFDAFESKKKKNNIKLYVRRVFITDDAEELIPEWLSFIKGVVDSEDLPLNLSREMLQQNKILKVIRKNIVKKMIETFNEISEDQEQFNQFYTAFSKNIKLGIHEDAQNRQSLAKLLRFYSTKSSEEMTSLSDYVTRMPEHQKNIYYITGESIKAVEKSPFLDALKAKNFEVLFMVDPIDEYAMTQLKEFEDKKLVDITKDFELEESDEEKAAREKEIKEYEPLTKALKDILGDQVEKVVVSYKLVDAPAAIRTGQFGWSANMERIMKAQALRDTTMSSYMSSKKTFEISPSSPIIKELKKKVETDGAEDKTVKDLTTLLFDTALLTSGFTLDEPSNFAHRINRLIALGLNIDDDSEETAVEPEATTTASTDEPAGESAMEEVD
Sequence of G-protein coupled receptor 55 (Q9Y2T6 whole entry): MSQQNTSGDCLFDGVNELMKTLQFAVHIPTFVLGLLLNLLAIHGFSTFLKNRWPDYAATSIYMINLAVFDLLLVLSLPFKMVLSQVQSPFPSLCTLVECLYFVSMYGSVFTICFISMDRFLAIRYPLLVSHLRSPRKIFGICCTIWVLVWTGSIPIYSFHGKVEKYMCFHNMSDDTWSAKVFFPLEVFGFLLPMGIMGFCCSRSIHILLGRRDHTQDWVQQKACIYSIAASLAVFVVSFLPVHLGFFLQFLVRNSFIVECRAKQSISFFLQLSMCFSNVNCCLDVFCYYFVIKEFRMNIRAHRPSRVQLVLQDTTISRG
Sequence of Voltage-dependent T-type calcium channel subunit alpha-1H (O95180 whole entry): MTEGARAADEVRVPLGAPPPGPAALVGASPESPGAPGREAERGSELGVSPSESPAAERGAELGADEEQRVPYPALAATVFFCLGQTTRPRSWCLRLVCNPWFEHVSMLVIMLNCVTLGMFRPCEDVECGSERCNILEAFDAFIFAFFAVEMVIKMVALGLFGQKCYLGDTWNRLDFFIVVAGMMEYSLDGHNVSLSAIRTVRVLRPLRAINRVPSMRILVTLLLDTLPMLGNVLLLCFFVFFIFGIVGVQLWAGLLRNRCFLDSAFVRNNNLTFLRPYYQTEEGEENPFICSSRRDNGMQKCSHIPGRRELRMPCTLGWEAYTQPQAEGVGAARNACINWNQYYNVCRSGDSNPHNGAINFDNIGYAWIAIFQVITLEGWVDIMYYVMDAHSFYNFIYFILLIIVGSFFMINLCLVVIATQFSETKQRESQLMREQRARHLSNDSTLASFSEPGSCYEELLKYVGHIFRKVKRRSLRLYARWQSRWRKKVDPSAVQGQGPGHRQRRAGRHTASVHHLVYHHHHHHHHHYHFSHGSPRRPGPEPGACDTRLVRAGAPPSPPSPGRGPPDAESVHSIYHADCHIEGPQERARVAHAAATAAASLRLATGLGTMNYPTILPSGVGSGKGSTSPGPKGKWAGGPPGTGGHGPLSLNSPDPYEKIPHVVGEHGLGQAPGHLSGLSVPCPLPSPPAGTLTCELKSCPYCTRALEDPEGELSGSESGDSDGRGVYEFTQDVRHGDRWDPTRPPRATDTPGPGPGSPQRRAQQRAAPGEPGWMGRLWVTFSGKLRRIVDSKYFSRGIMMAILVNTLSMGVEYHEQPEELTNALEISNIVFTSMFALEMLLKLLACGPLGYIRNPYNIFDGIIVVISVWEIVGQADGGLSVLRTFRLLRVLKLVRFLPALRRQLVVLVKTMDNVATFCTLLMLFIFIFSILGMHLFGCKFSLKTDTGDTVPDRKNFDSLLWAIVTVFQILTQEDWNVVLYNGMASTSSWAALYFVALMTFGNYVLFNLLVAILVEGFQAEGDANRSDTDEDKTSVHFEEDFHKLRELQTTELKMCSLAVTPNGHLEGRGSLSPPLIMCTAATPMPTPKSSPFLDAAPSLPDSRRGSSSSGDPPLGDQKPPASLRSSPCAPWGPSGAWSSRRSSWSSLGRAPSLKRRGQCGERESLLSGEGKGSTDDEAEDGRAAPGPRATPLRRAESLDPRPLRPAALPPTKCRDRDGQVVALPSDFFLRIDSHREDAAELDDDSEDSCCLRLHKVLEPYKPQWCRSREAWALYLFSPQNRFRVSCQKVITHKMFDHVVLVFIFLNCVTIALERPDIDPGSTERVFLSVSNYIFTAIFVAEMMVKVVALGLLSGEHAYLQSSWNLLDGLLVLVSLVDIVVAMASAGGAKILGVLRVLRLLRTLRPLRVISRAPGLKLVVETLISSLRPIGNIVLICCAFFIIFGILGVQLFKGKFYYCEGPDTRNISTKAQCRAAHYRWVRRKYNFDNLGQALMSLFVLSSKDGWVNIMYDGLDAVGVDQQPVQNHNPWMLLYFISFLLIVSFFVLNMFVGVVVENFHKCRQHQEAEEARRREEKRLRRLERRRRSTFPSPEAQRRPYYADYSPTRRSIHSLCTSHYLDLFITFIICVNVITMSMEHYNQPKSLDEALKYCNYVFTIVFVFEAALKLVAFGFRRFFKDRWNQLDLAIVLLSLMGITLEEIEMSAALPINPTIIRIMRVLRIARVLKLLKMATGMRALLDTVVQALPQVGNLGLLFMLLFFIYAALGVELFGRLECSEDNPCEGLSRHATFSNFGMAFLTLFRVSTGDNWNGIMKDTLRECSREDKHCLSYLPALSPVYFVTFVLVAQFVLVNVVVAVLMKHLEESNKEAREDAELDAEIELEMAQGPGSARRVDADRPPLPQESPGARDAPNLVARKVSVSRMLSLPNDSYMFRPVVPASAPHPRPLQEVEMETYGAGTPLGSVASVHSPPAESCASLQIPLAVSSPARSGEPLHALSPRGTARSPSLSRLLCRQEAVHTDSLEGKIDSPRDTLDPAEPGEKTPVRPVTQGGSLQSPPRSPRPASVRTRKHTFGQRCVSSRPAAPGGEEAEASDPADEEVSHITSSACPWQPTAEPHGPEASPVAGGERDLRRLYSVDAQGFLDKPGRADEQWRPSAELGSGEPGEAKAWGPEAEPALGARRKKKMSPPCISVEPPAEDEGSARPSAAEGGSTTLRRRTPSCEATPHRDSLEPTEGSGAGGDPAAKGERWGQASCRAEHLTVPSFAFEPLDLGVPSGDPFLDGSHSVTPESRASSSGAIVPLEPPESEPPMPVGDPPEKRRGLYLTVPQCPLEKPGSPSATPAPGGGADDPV
Sequence of Cytochrome P450 2C19 (P33261 whole entry): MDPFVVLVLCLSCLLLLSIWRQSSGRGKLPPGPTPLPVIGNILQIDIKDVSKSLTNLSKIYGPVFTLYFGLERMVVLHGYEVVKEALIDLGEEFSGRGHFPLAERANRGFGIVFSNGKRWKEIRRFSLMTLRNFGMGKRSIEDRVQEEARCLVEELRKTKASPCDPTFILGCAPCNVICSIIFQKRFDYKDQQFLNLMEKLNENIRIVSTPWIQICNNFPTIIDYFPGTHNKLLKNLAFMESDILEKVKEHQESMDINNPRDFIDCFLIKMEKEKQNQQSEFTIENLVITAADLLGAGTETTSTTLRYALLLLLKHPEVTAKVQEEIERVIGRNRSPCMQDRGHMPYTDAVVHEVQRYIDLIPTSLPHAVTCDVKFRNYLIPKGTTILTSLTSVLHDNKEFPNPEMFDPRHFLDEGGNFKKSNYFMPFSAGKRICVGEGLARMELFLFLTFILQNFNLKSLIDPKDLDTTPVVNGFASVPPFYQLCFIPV

O=c1[nH]c(-c2ccccn2)nc(C(F)(F)F)c1Br
EC50 [1]: > 180 µM (inactive) | AC50 [2]: 4.03 µM (active) | EC50 [3]: 10.7 µM (active)

COc1ccc2c(c1)CCc1c(C(=O)NCC(C)C)noc1-2
AC50 (HeLa): 55.1 µM (active)

CC(C)(C)n1nnnc1C(c1cccs1)N(Cc1cccnc1)Cc1ccccc1Cl (stereo unspecified)
IC50 [4]: 3.57 µM (active) | EC50 [5]: 0.684 µM (active) | EC50 [6]: 15.1 µM (active) | AC50 [7]: > 120 µM (inactive) | EC50 (Protein RecA): 59 µM (active)

CNC(=O)c1ccc(-c2cc3onc(-c4ccccc4)c3c(=O)n2C)cc1
AC50 (HeLa): 44.9 µM (active)

COc1ccc(OC)c(NC(=O)CSCc2cnn(-c3ccccc3)c2-n2cccc2)c1
EC50 [8]: 4.18 µM (active) | AC50 (Cytochrome P450 1A2): 25.1 µM (inconclusive) | AC50 (Cytochrome P450 2C9): inconclusive

Cc1ccc(Nc2cc(C)nc(-c3ccccc3)n2)cc1
AC50 (HeLa): 36.7 µM (active)

O=C(NCCCN1CCOCC1)c1ccc2c(=O)n(-c3ccc(F)c(Cl)c3)c(=S)[nH]c2c1
IC50 [9]: 11.5 µM (active)

Cn1c(=O)oc2cc(S(=O)(=O)NCCC(=O)N3CC=C(c4ccccc4)CC3)ccc21
AC50 (Cytochrome P450 1A2): 31.6 µM (inconclusive) | AC50 (Cytochrome P450 2C9): inconclusive

Cc1cc(O)c2cc(Cl)ccc2n1
AC50 (Cytochrome P450 2C9): inconclusive

O=C(NC1CC1)c1sc2cc(Cl)ccc2c1Cl
AC50 (HeLa): 69.3 µM (active)

Cc1ccc(-n2cc(CN3CCN(Cc4nccn4C)CC3)c(-c3ccc(F)cc3)n2)cc1
IC50 [9]: 10.1 µM (active)

CCOc1ccc(N=Nc2ccc(O)c3ncccc23)cc1
EC50 [10]: > 150 µM (inconclusive) | EC50 [11]: 0.19 µM (active) | EC50 [12]: 1.11 µM (active) | EC50 [5]: 0.65 µM (active) | EC50 [1]: > 180 µM (inactive) | EC50 [6]: 8.06 µM (active) | EC50 (Streptococcus): 1.45 µM (active) | EC50 [3]: > 150 µM (inactive)

CCOCCCN1C(=O)CN(C2CCCCCC2)C(=O)C1c1ccc(OC)cc1 (stereo unspecified)
AC50 (Cytochrome P450 2C19): 25.1 µM (inconclusive) | AC50 (Cytochrome P450 2C9): inconclusive

N#Cc1c(/N=C/N2CCCC2)oc(-c2ccccc2)c1-c1ccccc1
IC50 [4]: 0.558 µM (active) | AC50 [13]: 1.67 µM (active)

CC1=NC(C)(C)Cc2cc(C)c(C)cc21
IC50 [9]: 13.2 µM (active)

CCCC(=O)Nc1cccc(NC(=O)c2ccc([N+](=O)[O-])cc2Cl)c1
IC50 [9]: 15.1 µM (active)

CN(C)c1ncc2nc(-c3cc(F)cc(F)c3)c(=O)n(Cc3ccc(F)cc3)c2n1
AC50 (Cytochrome P450 3A4): 31.6 µM (inconclusive) | AC50 (Cytochrome P450 2C9): inconclusive
